# Results from US20060052314A1, “Pharmaceutical combination” (priority 2002, published 2006).
# Structures can show the parent of a compound that is named as a salt.
# Tests used:
# [1] = Test G: conversion to active inhibitor in liver microsomes from humans; type: in vitro ADME
# Method: (§1) By “prodrug of a thrombin inhibitor”, we include compounds that form a thrombin inhibitor, in an experimentally-detectable amount, and within a predetermined time (e.g. about 1 hour), following oral or parenteral administration (see, for example, Test E below) or, alternatively, following incubation in the presence of liver microsomes (see, for example, Test G below).
# [2] = Test G: conversion to active inhibitor in liver microsomes from rats; type: in vitro ADME
# Method: as §1
# thrombin = thrombin (Homo sapiens, UniProt P00734); assay: Test A: IC50TT; type: biochemical
IC50 (thrombin),melting point,Compound,conversion to the corresponding active inhibitor (free amidine) [1],conversion to the corresponding active inhibitor (free amidine) [2]
–,–,"CON=C(N)c1ccc(CNC(=O)[C@@H]2CCN2C(=O)[C@H](O)c2cc(Cl)cc(OC(CF)CF)c2)cc1 [Example 24, Ph(3-Cl)(5-OCH(CH2F)2)—(R)CH(OH)C(O)-Aze-Pab(OMe)]",converted to the corresponding active inhibitor (free amidine),converted to the corresponding active inhibitor (free amidine)
–,–,"CC(C)ON=C(N)c1ccc(CNC(=O)[C@@H]2CCN2C(=O)[C@H](O)c2cc(Cl)cc(OC(F)F)c2)cc1 [Example 45, Ph(3-Cl)(5-OCHF2)—(R)CH(OH)C(O)-Aze-Pab(OiPr)]",converted to the corresponding active inhibitor (free amidine),converted to the corresponding active inhibitor (free amidine)
–,–,"CON=C(N)c1ccc(CNC(=O)[C@@H]2CCCN2C(=O)[C@H](O)c2cc(Cl)cc(OC(F)F)c2)cc1 [Example 33, Ph(3-Cl)(5-OCHF2)—(R)CH(OH)—C(O)-Pro-Pab(OMe)]",converted to the corresponding active inhibitor (free amidine),converted to the corresponding active inhibitor (free amidine)
–,–,Ph(3-Br)(5-OCHF2)—(R)CH(OH)C(O)-Aze-Pab(OMe) [Example 29],converted to the corresponding active inhibitor (free amidine),converted to the corresponding active inhibitor (free amidine)
< 20 nM,–,"N=C(N)c1ccc(CNC(=O)[C@@H]2CCN2C(=O)[C@H](O)c2cc(Cl)cc(OC(F)F)c2)cn1 [Example 34, Ph(3-Cl)(5-OCHF2)—(R)CH(OH)C(O)-Aze-NH—CH2-((2-amidino)-5-pyridinyl)]",–,–
–,–,"CON=C(N)c1ccc(CNC(=O)[C@@H]2CCN2C(=O)[C@H](O)c2cc(Cl)cc(OC(F)(F)F)c2)cc1 [Example 7, Ph(3-Cl)(5-OCF3)—(R)CH(OH)C(O)-Aze-Pab(OMe)]",converted to the corresponding active inhibitor (free amidine),converted to the corresponding active inhibitor (free amidine)
–,–,"CON=C(N)c1ccc(CNC(=O)[C@@H]2CCN2C(=O)[C@H](O)c2cc(Cl)cc(OCC(F)(F)F)c2)cc1 [Example 16, Ph(3-Cl)(5-OCH2CF3)—(R)CH(OH)C(O)-Aze-Pab(OMe)]",converted to the corresponding active inhibitor (free amidine),converted to the corresponding active inhibitor (free amidine)
–,–,"CON=C(N)c1ccc(CNC(=O)[C@@H]2CCN2C(=O)[C@H](O)c2cc(Cl)cc(OCF)c2)cc1 [Example 20, Ph(3-Cl)(5-OCH2F)—(R)CH(OH)C(O)-Aze-Pab(OMe)]",converted to the corresponding active inhibitor (free amidine),converted to the corresponding active inhibitor (free amidine)
–,–,"CON=C(N)c1ccc(CNC(=O)[C@@H]2CCN2C(=O)[C@H](CO)c2cc(Cl)cc(OC(F)(F)F)c2)cc1 [Example 11, Ph(3-Cl)(5-OCF3)—(S)CH(CH2OH)C(O)-Aze-Pab(OMe)]",converted to the corresponding active inhibitor (free amidine),converted to the corresponding active inhibitor (free amidine)
< 3500 nM,–,"N=C(N)c1cnc(CNC(=O)[C@@H]2CCN2C(=O)[C@H](O)c2cc(Cl)cc(OC(F)F)c2)nc1 [Example 36, Ph(3-Cl)(5-OCHF2)—(R)CH(OH)C(O)-Aze-NH—CH2-((5-amidino)-2-pyrimidinyl)]",–,–
–,–,"CO/N=C(\N)c1cc(F)c(CNC(=O)[C@@H]2CCN2C(=O)[C@H](O)c2cc(Cl)cc(OC(F)F)c2)c(F)c1 [Example 40, Ph(3-Cl)(5-OCHF2)—(R)CH(OH)C(O)-Aze-Pab(2,6-diF)(OMe)]",converted to the corresponding active inhibitor (free amidine),converted to the corresponding active inhibitor (free amidine)
< 20 nM,–,"N=C(N)c1cc(F)c(CNC(=O)[C@@H]2CCN2C(=O)[C@H](O)c2cc(Cl)cc(OC(F)F)c2)c(F)c1 [Example 39, Ph(3-Cl)(5-OCHF2)—(R)CH(OH)C(O)-Aze-Pab(2.6-diF)]",–,–
–,–,"NC(=NO)c1ccc(CNC(=O)[C@@H]2CCN2C(=O)[C@H](O)c2cc(Cl)cc(OC(F)F)c2)cc1 [Example 2, Ph(3-Cl)(5-OCHF2)—(R)CH(OH)C(O)-Aze-Pab(OH)]",converted to the corresponding active inhibitor (free amidine),converted to the corresponding active inhibitor (free amidine)
–,–,"CON=C(N)c1ccc(CNC(=O)[C@@H]2CCN2C(=O)[C@H](O)c2cc(Cl)cc(OC(F)F)c2)cc1 [Example 12, Ph(3-Cl)(5-OCHF2)—(R)CH(OH)C(O)-Aze-Pab(OMe)]",converted to the corresponding active inhibitor (free amidine),converted to the corresponding active inhibitor (free amidine)
–,–,"CON=C(N)c1ccc(CNC(=O)[C@@H]2CCN2C(=O)[C@H](O)c2cc(Cl)cc(OCCF)c2)cc1 [Example 22, Ph(3-Cl)(5-OCH2CH2F)—(R)CH(OH)C(O)-Aze-Pab(OMe)]",converted to the corresponding active inhibitor (free amidine),converted to the corresponding active inhibitor (free amidine)
< 150 nM,–,"N=C(N)c1cc(F)c(CNC(=O)[C@@H]2CCN2C(=O)[C@H](O)c2cc(Cl)cc(OC(F)F)c2)cc1F [Example 41, Ph(3-Cl)(5-OCHF2)—(R)CH(OH)C(O)-Aze-Pab(2,5-diF)]",–,–
–,–,"CO/N=C(\N)c1cnc(CNC(=O)[C@@H]2CCN2C(=O)[C@H](O)c2cc(Cl)cc(OC(F)F)c2)nc1 [Example 37, Ph(3-Cl)(5-OCHF2)—(R)CH(OH)C(O)-Aze-NH—CH2-((5-methoxyamidino)-2-pyrimidinyl)]",converted to the corresponding active inhibitor (free amidine),converted to the corresponding active inhibitor (free amidine)
–,–,"CON=C(N)c1ccc(CNC(=O)[C@@H]2CCN2C(=O)[C@H](O)c2cc(F)cc(OC(F)F)c2)cc1 [Example 26, Ph(3-F)(5-OCHF2)—(R)CH(OH)C(O)-Aze-Pab(OMe)]",converted to the corresponding active inhibitor (free amidine),converted to the corresponding active inhibitor (free amidine)
–,–,"CCON=C(N)c1ccc(CNC(=O)[C@@H]2CCN2C(=O)[C@H](O)c2cc(Cl)cc(OC(F)F)c2)cc1 [Example 43, Ph(3-Cl)(5-OCHF2)—(R)CH(OH)C(O)-Aze-Pab(OEt)]",converted to the corresponding active inhibitor (free amidine),converted to the corresponding active inhibitor (free amidine)
–,–,"CON=C(N)c1ccc(CNC(=O)[C@@H]2CCN2C(=O)[C@H](O)c2cc(Cl)cc(OCC(F)F)c2)cc1 [Example 18, Ph(3-Cl)(5-OCH2CHF2)—(R)CH(OH)C(O)-Aze-Pab(OMe)]",converted to the corresponding active inhibitor (free amidine),converted to the corresponding active inhibitor (free amidine)
< 150 nM,–,"N=C(N)c1ccc(CNC(=O)[C@@H]2CCN2C(=O)[C@H](O)c2cc(Cl)cc(OC(F)F)c2)cc1F [Example 38, Ph(3-Cl)(5-OCHF2)—(R)CH(OH)C(O)-Aze-Pab(3-F)]",–,–
–,86 to 87 °C,"N=C(N)c1cnc(CNC(=O)[C@@H]2CCN2C(=O)[C@H](O)c2cc(Cl)cc(OC(F)F)c2)nc1 (as salt: TFA) [Example 36, Ph(3-Cl)(5-OCHF2)—(R)CH(OH)C(O)-Aze-NH—CH2-((5-amidino)-2-pyrimidinyl)]",–,–
–,–,Ph(3-Cl)(5-OCHF2)—(R)CH(OH)C(O)-Aze-Pab(OcBu) [Example 1],converted to the corresponding active inhibitor (free amidine),converted to the corresponding active inhibitor (free amidine)
